Measured values from PubChem BioAssay AID1963849 (Molecular Pharmacology Branch, DTP, NCI, 2024).

Tested on: 299254-011-R-J1-PDC complex spheroid viability
Assay: Anticancer human tumor 299254-011-R-J1-PDC patient-derived melanoma cell line growth inhibition [POLQ]
Conditions: for IC50: curve of first compound; for viability, T/C: stronger effect = lower value
In short: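 Growth inhibition in 3D: complex spheroids (tumor PDC, HUVEC, MSC) treated with POLQ inhibitor combinations; where Cmax unknown, highest tested concentration 10 microM, except SN-38 at 1 microM.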

[1] = second compound 0.0316 µM, first compound 0.00316 µM
[2] = second compound 0.0316 µM, first compound 0.01 µM
[3] = second compound 0.0316 µM, first compound 0.0316 µM
[4] = second compound 0.0316 µM, first compound 0.1 µM
[5] = second compound 0.0316 µM, first compound 0.316 µM
[6] = second compound 0.0316 µM, first compound 1 µM
[7] = second compound 0.1 µM, first compound 0.00316 µM
[8] = second compound 0.1 µM, first compound 0.01 µM
[9] = second compound 0.1 µM, first compound 0.0316 µM
[10] = second compound 0.1 µM, first compound 0.1 µM
[11] = second compound 0.1 µM, first compound 0.316 µM
[12] = second compound 0.1 µM, first compound 1 µM
[13] = second compound 0.316 µM, first compound 0.00316 µM
[14] = second compound 0.316 µM, first compound 0.01 µM
[15] = second compound 0.316 µM, first compound 0.0316 µM
[16] = second compound 0.316 µM, first compound 0.1 µM
[17] = second compound 0.316 µM, first compound 0.316 µM
[18] = second compound 0.316 µM, first compound 1 µM
[19] = second compound 1 µM, first compound 0.00316 µM
[20] = second compound 1 µM, first compound 0.01 µM
[21] = second compound 1 µM, first compound 0.0316 µM
[22] = second compound 1 µM, first compound 0.1 µM
[23] = second compound 1 µM, first compound 0.316 µM
[24] = second compound 1 µM, first compound 1 µM
[25] = second compound 3.16 µM, first compound 0.00316 µM
[26] = second compound 3.16 µM, first compound 0.01 µM
[27] = second compound 3.16 µM, first compound 0.0316 µM
[28] = second compound 3.16 µM, first compound 0.1 µM
[29] = second compound 3.16 µM, first compound 0.316 µM
[30] = second compound 3.16 µM, first compound 1 µM
[31] = second compound 10 µM, first compound 0.00316 µM
[32] = second compound 10 µM, first compound 0.01 µM
[33] = second compound 10 µM, first compound 0.0316 µM
[34] = second compound 10 µM, first compound 0.1 µM
[35] = second compound 10 µM, first compound 0.316 µM
[36] = second compound 10 µM, first compound 1 µM
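Note: spheroids exposed to drugs for one week before measurement.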
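Throughout, for viability, T/C: percent viability relative to DMSO vehicle control taken as 100%.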

CCc1c2c(nc3ccc(O)cc13)-c1cc3c(c(=O)n1C2)COC(=O)[C@]3(O)CC + Nc1ccc(C#CCN(C(=O)Cc2ncc(C(F)(F)F)cc2C(F)(F)F)c2ccc(F)cc2)nn1
IC50 (second compound 0.0316 µM): > 1 µM
IC50 (second compound 0.1 µM): > 1 µM
IC50 (second compound 0.316 µM): > 1 µM
IC50 (second compound 1 µM): > 1 µM
IC50 (second compound 3.16 µM): > 1 µM
IC50 (second compound 10 µM): > 1 µM
viability, T/C [1]: 94.8%
viability, T/C [2]: 85.3%
viability, T/C [3]: 81.9%
viability, T/C [4]: 75.5%
viability, T/C [5]: 76.8%
viability, T/C [6]: 63.9%
viability, T/C [7]: 89.7%
viability, T/C [8]: 85.5%
viability, T/C [9]: 72.2%
viability, T/C [10]: 77.2%
viability, T/C [11]: 68.7%
viability, T/C [12]: 57.9%
viability, T/C [13]: 108%
viability, T/C [14]: 81.7%
viability, T/C [15]: 69.5%
viability, T/C [16]: 79%
viability, T/C [17]: 71%
viability, T/C [18]: 58.5%
viability, T/C [19]: 111%
viability, T/C [20]: 85.3%
viability, T/C [21]: 73.9%
viability, T/C [22]: 79.5%
viability, T/C [23]: 63.6%
viability, T/C [24]: 55.6%
viability, T/C [25]: 97.6%
viability, T/C [26]: 84.1%
viability, T/C [27]: 81.9%
viability, T/C [28]: 72.3%
viability, T/C [29]: 72.9%
viability, T/C [30]: 59.9%
viability, T/C [31]: 96.4%
viability, T/C [32]: 73.2%
viability, T/C [33]: 68.7%
viability, T/C [34]: 71.1%
viability, T/C [35]: 61.9%
viability, T/C [36]: 61.5%

COc1cccc(OCCCN)c1-c1cc(Nc2cnc(C#N)cn2)n[nH]1 + Nc1ccc(C#CCN(C(=O)Cc2ncc(C(F)(F)F)cc2C(F)(F)F)c2ccc(F)cc2)nn1
IC50 (second compound 0.0316 µM): 0.147 µM
IC50 (second compound 0.1 µM): 0.0974 µM
IC50 (second compound 0.316 µM): 0.0968 µM
IC50 (second compound 1 µM): 0.0795 µM
IC50 (second compound 3.16 µM): 0.0706 µM
IC50 (second compound 10 µM): 0.0294 µM
viability, T/C [1]: 96.7%
viability, T/C [2]: 129%
viability, T/C [3]: 78.6%
viability, T/C [4]: 61.2%
viability, T/C [5]: 40.2%
viability, T/C [6]: 42.6%
viability, T/C [7]: 106%
viability, T/C [8]: 107%
viability, T/C [9]: 84.9%
viability, T/C [10]: 49.2%
viability, T/C [11]: 51.6%
viability, T/C [12]: 42.3%
viability, T/C [13]: 111%
viability, T/C [14]: 97.5%
viability, T/C [15]: 67%
viability, T/C [16]: 51.8%
viability, T/C [17]: 40%
viability, T/C [18]: 35.5%
viability, T/C [19]: 98.3%
viability, T/C [20]: 111%
viability, T/C [21]: 72.2%
viability, T/C [22]: 51.6%
viability, T/C [23]: 41.8%
viability, T/C [24]: 37.2%
viability, T/C [25]: 115%
viability, T/C [26]: 79.6%
viability, T/C [27]: 63.9%
viability, T/C [28]: 41.7%
viability, T/C [29]: 37%
viability, T/C [30]: 46.6%
viability, T/C [31]: 121%
viability, T/C [32]: 75.1%
viability, T/C [33]: 48.9%
viability, T/C [34]: 38%
viability, T/C [35]: 32.3%
viability, T/C [36]: 35.7%

Cn1ncnc1[C@H]1c2n[nH]c(=O)c3cc(F)cc(c23)N[C@@H]1c1ccc(F)cc1 + Nc1ccc(C#CCN(C(=O)Cc2ncc(C(F)(F)F)cc2C(F)(F)F)c2ccc(F)cc2)nn1
IC50 (second compound 0.0316 µM): > 0.1 µM
IC50 (second compound 0.1 µM): > 0.1 µM
IC50 (second compound 0.316 µM): > 0.1 µM
IC50 (second compound 1 µM): > 0.1 µM
IC50 (second compound 3.16 µM): > 0.1 µM
IC50 (second compound 10 µM): > 0.1 µM
viability, T/C (second compound 0.0316 µM, first compound 0.000316 µM): 107%
viability, T/C (second compound 0.0316 µM, first compound 0.001 µM): 101%
viability, T/C [1]: 97.2%
viability, T/C [2]: 98.6%
viability, T/C [3]: 99.9%
viability, T/C [4]: 108%
viability, T/C (second compound 0.1 µM, first compound 0.000316 µM): 115%
viability, T/C (second compound 0.1 µM, first compound 0.001 µM): 94%
viability, T/C [7]: 111%
viability, T/C [8]: 95.5%
viability, T/C [9]: 107%
viability, T/C [10]: 101%
viability, T/C (second compound 0.316 µM, first compound 0.000316 µM): 107%
viability, T/C (second compound 0.316 µM, first compound 0.001 µM): 113%
viability, T/C [13]: 95.1%
viability, T/C [14]: 113%
viability, T/C [15]: 125%
viability, T/C [16]: 89.9%
viability, T/C (second compound 1 µM, first compound 0.000316 µM): 107%
viability, T/C (second compound 1 µM, first compound 0.001 µM): 106%
viability, T/C [19]: 102%
viability, T/C [20]: 107%
viability, T/C [21]: 102%
viability, T/C [22]: 113%
viability, T/C (second compound 3.16 µM, first compound 0.000316 µM): 103%
viability, T/C (second compound 3.16 µM, first compound 0.001 µM): 103%
viability, T/C [25]: 94.4%
viability, T/C [26]: 105%
viability, T/C [27]: 98.2%
viability, T/C [28]: 105%
viability, T/C (second compound 10 µM, first compound 0.000316 µM): 96.3%
viability, T/C (second compound 10 µM, first compound 0.001 µM): 93.3%
viability, T/C [31]: 88.1%
viability, T/C [32]: 102%
viability, T/C [33]: 87.2%
viability, T/C [34]: 90.7%
